PubChem BioAssay (NCI)
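Cells were grown in 96-well plates and exposed to each compound for 48 hours at five concentrations; endpoints were interpolated linearly between bracketing concentrations, or set to the highest concentration if not reached. Abbreviation: GI50, concentration required for 50% inhibition of growth. At the TGI there is no net growth.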

Tests used:
Assay in all cases: DTP human tumour cell line panel, 48 h
PC-3 prostate = tested on: PC-3 prostate
LOX IMVI melanoma = tested on: LOX IMVI melanoma
UACC-62 melanoma = tested on: UACC-62 melanoma
SF-268 CNS = tested on: SF-268 CNS
OVCAR-4 ovarian = tested on: OVCAR-4 ovarian
HCT-116 colon = tested on: HCT-116 colon
IGROV1 ovarian = tested on: IGROV1 ovarian
HCT-15 colon = tested on: HCT-15 colon
CCRF-CEM leukemia = tested on: CCRF-CEM leukemia
SW-620 colon = tested on: SW-620 colon
NCI/ADR-RES ovarian = tested on: NCI/ADR-RES ovarian
SK-MEL-28 melanoma = tested on: SK-MEL-28 melanoma
K-562 leukemia = tested on: K-562 leukemia
RXF 393 renal = tested on: RXF 393 renal
SNB-19 CNS = tested on: SNB-19 CNS
T-47D breast = tested on: T-47D breast
M14 melanoma = tested on: M14 melanoma
COLO 205 colon = tested on: COLO 205 colon
OVCAR-5 ovarian = tested on: OVCAR-5 ovarian
UACC-257 melanoma = tested on: UACC-257 melanoma
DU-145 prostate = tested on: DU-145 prostate
HOP-62 NSCLC = tested on: HOP-62 NSCLC
EKVX NSCLC = tested on: EKVX NSCLC
NCI-H460 lung = tested on: NCI-H460 lung
A549 NSCLC = tested on: A549 NSCLC
NCI-H226 lung = tested on: NCI-H226 lung
BT-549 breast = tested on: BT-549 breast
786-0 renal = tested on: 786-0 renal
HOP-92 NSCLC = tested on: HOP-92 NSCLC
MCF7 breast = tested on: MCF7 breast
KM12 colon = tested on: KM12 colon
SK-OV-3 ovarian = tested on: SK-OV-3 ovarian
MDA-MB-231 breast = tested on: MDA-MB-231 breast
SNB-75 CNS = tested on: SNB-75 CNS
OVCAR-8 ovarian = tested on: OVCAR-8 ovarian
HS 578T breast = tested on: HS 578T breast
UO-31 renal = tested on: UO-31 renal
ACHN renal = tested on: ACHN renal
NCI-H23 lung = tested on: NCI-H23 lung
RPMI-8226 leukemia = tested on: RPMI-8226 leukemia
HT29 colon = tested on: HT29 colon
TK-10 renal = tested on: TK-10 renal
U251 CNS = tested on: U251 CNS
SN12C renal = tested on: SN12C renal
HCC-2998 colon = tested on: HCC-2998 colon
SK-MEL-2 melanoma = tested on: SK-MEL-2 melanoma
SF-539 CNS = tested on: SF-539 CNS
MALME-3M melanoma = tested on: MALME-3M melanoma
SK-MEL-5 melanoma = tested on: SK-MEL-5 melanoma
HL-60(TB) leukemia = tested on: HL-60(TB) leukemia
A498 renal = tested on: A498 renal
OVCAR-3 ovarian = tested on: OVCAR-3 ovarian
MDA-MB-435 = tested on: MDA-MB-435
SR leukemia = tested on: SR leukemia
NCI-H522 lung = tested on: NCI-H522 lung
SF-295 CNS = tested on: SF-295 CNS
CAKI-1 renal = tested on: CAKI-1 renal
MOLT-4 leukemia = tested on: MOLT-4 leukemia

SMILES: C#CCN(C)CCCOc1ccc(NCc2ccc(/C=C/C(=O)NO)cc2)cc1Cl
- GI50 (PC-3 prostate): 509 nM
- TGI (PC-3 prostate): 6850 nM
- GI50 (LOX IMVI melanoma): 475 nM
- TGI (LOX IMVI melanoma): 1360 nM
- GI50 (UACC-62 melanoma): 367 nM
- TGI (UACC-62 melanoma): 1900 nM
- GI50 (SF-268 CNS): 1360 nM
- TGI (SF-268 CNS): 4650 nM
- GI50 (OVCAR-4 ovarian): 1400 nM
- TGI (OVCAR-4 ovarian): 19400 nM
- GI50 (HCT-116 colon): 274 nM
- TGI (HCT-116 colon): 1700 nM
- GI50 (IGROV1 ovarian): 361 nM
- TGI (IGROV1 ovarian): 1570 nM
- GI50 (HCT-15 colon): 512 nM
- TGI (HCT-15 colon): 4600 nM
- GI50 (CCRF-CEM leukemia): 264 nM
- TGI (CCRF-CEM leukemia): > 100000 nM
- GI50 (SW-620 colon): 235 nM
- TGI (SW-620 colon): 856 nM
- GI50 (NCI/ADR-RES ovarian): 295 nM
- TGI (NCI/ADR-RES ovarian): 5350 nM
- GI50 (SK-MEL-28 melanoma): 485 nM
- TGI (SK-MEL-28 melanoma): 1920 nM
- GI50 (K-562 leukemia): 297 nM
- TGI (K-562 leukemia): > 100000 nM
- GI50 (RXF 393 renal): 249 nM
- TGI (RXF 393 renal): 799 nM
- GI50 (SNB-19 CNS): 1030 nM
- TGI (SNB-19 CNS): 4060 nM
- GI50 (T-47D breast): 338 nM
- TGI (T-47D breast): > 31000 nM
- GI50 (M14 melanoma): 465 nM
- TGI (M14 melanoma): 2100 nM
- GI50 (COLO 205 colon): 374 nM
- TGI (COLO 205 colon): 1920 nM
- GI50 (OVCAR-5 ovarian): 330 nM
- TGI (OVCAR-5 ovarian): 2670 nM
- GI50 (UACC-257 melanoma): 419 nM
- TGI (UACC-257 melanoma): 18200 nM
- GI50 (DU-145 prostate): 412 nM
- TGI (DU-145 prostate): 5280 nM
- GI50 (HOP-62 NSCLC): 601 nM
- TGI (HOP-62 NSCLC): 3240 nM
- GI50 (EKVX NSCLC): 954 nM
- TGI (EKVX NSCLC): 6800 nM
- GI50 (NCI-H460 lung): 430 nM
- TGI (NCI-H460 lung): 3210 nM
- GI50 (A549 NSCLC): 528 nM
- TGI (A549 NSCLC): 2540 nM
- GI50 (NCI-H226 lung): 1490 nM
- TGI (NCI-H226 lung): 4170 nM
- GI50 (BT-549 breast): 1370 nM
- TGI (BT-549 breast): 6090 nM
- GI50 (786-0 renal): 1130 nM
- TGI (786-0 renal): 2750 nM
- GI50 (HOP-92 NSCLC): 340 nM
- TGI (HOP-92 NSCLC): 1410 nM
- GI50 (MCF7 breast): 421 nM
- TGI (MCF7 breast): 11800 nM
- GI50 (KM12 colon): 1020 nM
- TGI (KM12 colon): 6800 nM
- GI50 (SK-OV-3 ovarian): 645 nM
- TGI (SK-OV-3 ovarian): 2990 nM
- GI50 (MDA-MB-231 breast): 502 nM
- TGI (MDA-MB-231 breast): 4500 nM
- GI50 (SNB-75 CNS): 474 nM
- TGI (SNB-75 CNS): 2920 nM
- GI50 (OVCAR-8 ovarian): 369 nM
- TGI (OVCAR-8 ovarian): > 48300 nM
- GI50 (HS 578T breast): 582 nM
- TGI (HS 578T breast): 6220 nM
- GI50 (UO-31 renal): 299 nM
- TGI (UO-31 renal): 1550 nM
- GI50 (ACHN renal): 379 nM
- TGI (ACHN renal): 1690 nM
- GI50 (NCI-H23 lung): 814 nM
- TGI (NCI-H23 lung): 2660 nM
- GI50 (RPMI-8226 leukemia): 316 nM
- TGI (RPMI-8226 leukemia): 2820 nM
- GI50 (HT29 colon): 345 nM
- TGI (HT29 colon): 4770 nM
- GI50 (TK-10 renal): 387 nM
- TGI (TK-10 renal): 3290 nM
- GI50 (U251 CNS): 502 nM
- TGI (U251 CNS): 2420 nM
- GI50 (SN12C renal): 1050 nM
- TGI (SN12C renal): 7340 nM
- GI50 (HCC-2998 colon): 382 nM
- TGI (HCC-2998 colon): 1910 nM
- GI50 (SK-MEL-2 melanoma): 2050 nM
- TGI (SK-MEL-2 melanoma): 6610 nM
- GI50 (SF-539 CNS): 717 nM
- TGI (SF-539 CNS): 2900 nM
- GI50 (MALME-3M melanoma): 242 nM
- TGI (MALME-3M melanoma): 1590 nM
- GI50 (SK-MEL-5 melanoma): 373 nM
- TGI (SK-MEL-5 melanoma): 1340 nM
- GI50 (HL-60(TB) leukemia): 331 nM
- TGI (HL-60(TB) leukemia): 17300 nM
- GI50 (A498 renal): 417 nM
- TGI (A498 renal): 1730 nM
- GI50 (OVCAR-3 ovarian): 478 nM
- TGI (OVCAR-3 ovarian): 2490 nM
- GI50 (MDA-MB-435): 330 nM
- TGI (MDA-MB-435): 1280 nM
- GI50 (SR leukemia): 360 nM
- TGI (SR leukemia): > 100000 nM
- GI50 (NCI-H522 lung): 407 nM
- TGI (NCI-H522 lung): 2580 nM
- GI50 (SF-295 CNS): 634 nM
- TGI (SF-295 CNS): 2030 nM
- GI50 (CAKI-1 renal): 544 nM
- TGI (CAKI-1 renal): 2210 nM
- GI50 (MOLT-4 leukemia): 330 nM
- TGI (MOLT-4 leukemia): 17100 nM
